In ChEMBL document CHEMBL5537122, “Design, synthesis, and biological evaluation of 4-(2-fluorophenoxy)-7-methoxyquinazoline derivatives as dual EGFR/c-Met inhibitors for the treatment of NSCLC” (Eur J Med Chem, 2024) one finds IC50 data, which are given here for 30 compounds.

pIC50: −log10 of the molar value.

For experiment [1], the system named is A549. The experiment can be described thus: Antiproliferative activity against human A549 cells overexpressing c-Met and EGFR assessed as reduction in cell viability incubated for 72 hrs by MTT assay. The class given is functional, cell-based. The conditions noted are these: A549, 72 h.
For experiment [2], the system named is NCI-H1975. The experiment can be described thus: Antiproliferative activity against human NCI-H1975 cells overexpressing c-Met and EGFR assessed as reduction in cell viability incubated for 72 hrs by MTT assay. The format is functional, cell-based. The conditions noted are these: NCI-H1975, 72 h. A general note: Tetrazolium dyes change colour on reduction, which living cells bring about.

In experiment [3] the test system is PC-9. The experiment can be described thus: Antiproliferative activity against human PC-9 cells overexpressing c-Met and EGFR assessed as reduction in cell viability incubated for 72 hrs by MTT assay. The class given is functional, cell-based. To be noted: PC-9, 72 h.
In experiment [4] the target is Epidermal growth factor receptor (Homo sapiens, UniProt P00533). The experiment can be described thus: biochemical.
Sequence of Epidermal growth factor receptor (Homo sapiens, UniProt P00533) (P00533 whole entry): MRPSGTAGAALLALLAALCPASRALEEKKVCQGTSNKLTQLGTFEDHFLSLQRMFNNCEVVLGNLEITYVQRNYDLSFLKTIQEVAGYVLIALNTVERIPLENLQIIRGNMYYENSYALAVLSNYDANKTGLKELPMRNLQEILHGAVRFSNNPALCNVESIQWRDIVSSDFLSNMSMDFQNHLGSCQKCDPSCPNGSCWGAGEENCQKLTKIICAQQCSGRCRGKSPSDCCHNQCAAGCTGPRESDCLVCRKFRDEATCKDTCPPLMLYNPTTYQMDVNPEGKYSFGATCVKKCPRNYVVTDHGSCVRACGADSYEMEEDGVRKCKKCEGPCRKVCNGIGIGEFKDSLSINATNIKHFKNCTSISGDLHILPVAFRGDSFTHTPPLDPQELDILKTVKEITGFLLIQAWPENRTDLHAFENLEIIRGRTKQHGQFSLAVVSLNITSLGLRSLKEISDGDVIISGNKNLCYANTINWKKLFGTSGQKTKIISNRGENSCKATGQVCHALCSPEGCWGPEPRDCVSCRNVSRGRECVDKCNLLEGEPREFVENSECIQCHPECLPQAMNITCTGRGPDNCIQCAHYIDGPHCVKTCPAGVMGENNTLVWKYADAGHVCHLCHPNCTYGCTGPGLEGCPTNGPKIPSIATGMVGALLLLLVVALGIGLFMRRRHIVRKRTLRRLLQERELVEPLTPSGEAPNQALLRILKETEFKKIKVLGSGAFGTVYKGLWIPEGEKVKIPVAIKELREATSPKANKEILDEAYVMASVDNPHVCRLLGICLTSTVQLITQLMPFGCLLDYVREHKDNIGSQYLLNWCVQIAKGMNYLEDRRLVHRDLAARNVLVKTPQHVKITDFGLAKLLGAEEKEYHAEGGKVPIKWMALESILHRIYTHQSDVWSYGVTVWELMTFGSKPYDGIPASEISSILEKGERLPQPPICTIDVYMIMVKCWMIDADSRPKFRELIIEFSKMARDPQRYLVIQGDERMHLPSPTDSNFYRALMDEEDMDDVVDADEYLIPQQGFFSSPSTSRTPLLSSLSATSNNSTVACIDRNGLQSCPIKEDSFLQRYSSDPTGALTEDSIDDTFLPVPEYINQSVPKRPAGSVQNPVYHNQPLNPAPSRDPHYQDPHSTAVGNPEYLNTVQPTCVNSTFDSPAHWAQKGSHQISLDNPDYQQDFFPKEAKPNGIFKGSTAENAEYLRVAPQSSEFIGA
Description: Inhibition of N-terminal GST tagged human recombinant EGFR (695 to end residues) expressed in baculovirus infected Sf9 cells using Poly (4:1 Glu, Tyr) as substrate incubated for 60 mins in presence of ATP by ADP-Glo luminescent assay
Experiment [5] has as its target Epidermal growth factor receptor (Homo sapiens, UniProt P00533, L858R). Description: biochemical.
In experiment [6] the target is Hepatocyte growth factor receptor (Homo sapiens, UniProt P08581). Description: biochemical.
Sequence of Hepatocyte growth factor receptor (P08581 whole entry): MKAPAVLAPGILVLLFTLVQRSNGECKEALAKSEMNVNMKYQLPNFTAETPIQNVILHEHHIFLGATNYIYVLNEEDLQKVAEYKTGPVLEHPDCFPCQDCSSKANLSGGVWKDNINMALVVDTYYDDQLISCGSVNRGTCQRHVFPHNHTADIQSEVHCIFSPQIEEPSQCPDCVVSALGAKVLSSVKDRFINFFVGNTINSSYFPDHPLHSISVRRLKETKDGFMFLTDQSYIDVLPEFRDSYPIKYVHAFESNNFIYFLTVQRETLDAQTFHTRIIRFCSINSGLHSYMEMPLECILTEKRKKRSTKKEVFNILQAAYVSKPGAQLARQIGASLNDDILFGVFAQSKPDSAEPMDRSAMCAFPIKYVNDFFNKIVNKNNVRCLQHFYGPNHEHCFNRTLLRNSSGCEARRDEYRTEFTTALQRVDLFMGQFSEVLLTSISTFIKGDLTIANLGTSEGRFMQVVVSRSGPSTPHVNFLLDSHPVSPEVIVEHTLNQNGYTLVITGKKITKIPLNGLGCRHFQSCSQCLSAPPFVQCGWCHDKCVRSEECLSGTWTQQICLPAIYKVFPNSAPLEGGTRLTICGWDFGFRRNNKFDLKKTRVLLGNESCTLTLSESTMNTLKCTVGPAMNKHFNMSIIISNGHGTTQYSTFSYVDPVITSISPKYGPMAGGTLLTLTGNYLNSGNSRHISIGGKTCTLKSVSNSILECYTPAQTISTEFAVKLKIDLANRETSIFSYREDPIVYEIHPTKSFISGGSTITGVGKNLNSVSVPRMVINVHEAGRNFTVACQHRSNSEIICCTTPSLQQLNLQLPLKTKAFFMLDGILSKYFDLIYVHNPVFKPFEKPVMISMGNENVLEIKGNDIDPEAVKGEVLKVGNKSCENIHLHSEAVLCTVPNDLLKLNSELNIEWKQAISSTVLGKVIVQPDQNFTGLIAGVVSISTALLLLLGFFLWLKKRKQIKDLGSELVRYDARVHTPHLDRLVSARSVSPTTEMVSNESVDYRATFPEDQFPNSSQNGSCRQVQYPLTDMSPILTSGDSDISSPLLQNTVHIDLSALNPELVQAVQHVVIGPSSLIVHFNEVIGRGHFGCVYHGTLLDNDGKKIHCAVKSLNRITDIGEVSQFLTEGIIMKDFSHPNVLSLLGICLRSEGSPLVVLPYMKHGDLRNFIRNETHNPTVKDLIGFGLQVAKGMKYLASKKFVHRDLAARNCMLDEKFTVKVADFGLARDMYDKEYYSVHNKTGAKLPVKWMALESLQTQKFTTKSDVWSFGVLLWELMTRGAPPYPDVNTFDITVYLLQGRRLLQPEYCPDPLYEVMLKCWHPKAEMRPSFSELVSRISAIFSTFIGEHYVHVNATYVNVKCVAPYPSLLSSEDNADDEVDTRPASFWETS
Description: Inhibition of N-terminal GST tagged human recombinant c-Met (956 to end residues) expressed in baculovirus infected Sf9 cells using Poly (4:1 Glu, Tyr) as substrate incubated for 60 mins in presence of ATP by ADP-Glo luminescent assay

Sequence of Epidermal growth factor receptor (Homo sapiens, UniProt P00533, L858R) (P00533 25-1210 L858R limits assumed): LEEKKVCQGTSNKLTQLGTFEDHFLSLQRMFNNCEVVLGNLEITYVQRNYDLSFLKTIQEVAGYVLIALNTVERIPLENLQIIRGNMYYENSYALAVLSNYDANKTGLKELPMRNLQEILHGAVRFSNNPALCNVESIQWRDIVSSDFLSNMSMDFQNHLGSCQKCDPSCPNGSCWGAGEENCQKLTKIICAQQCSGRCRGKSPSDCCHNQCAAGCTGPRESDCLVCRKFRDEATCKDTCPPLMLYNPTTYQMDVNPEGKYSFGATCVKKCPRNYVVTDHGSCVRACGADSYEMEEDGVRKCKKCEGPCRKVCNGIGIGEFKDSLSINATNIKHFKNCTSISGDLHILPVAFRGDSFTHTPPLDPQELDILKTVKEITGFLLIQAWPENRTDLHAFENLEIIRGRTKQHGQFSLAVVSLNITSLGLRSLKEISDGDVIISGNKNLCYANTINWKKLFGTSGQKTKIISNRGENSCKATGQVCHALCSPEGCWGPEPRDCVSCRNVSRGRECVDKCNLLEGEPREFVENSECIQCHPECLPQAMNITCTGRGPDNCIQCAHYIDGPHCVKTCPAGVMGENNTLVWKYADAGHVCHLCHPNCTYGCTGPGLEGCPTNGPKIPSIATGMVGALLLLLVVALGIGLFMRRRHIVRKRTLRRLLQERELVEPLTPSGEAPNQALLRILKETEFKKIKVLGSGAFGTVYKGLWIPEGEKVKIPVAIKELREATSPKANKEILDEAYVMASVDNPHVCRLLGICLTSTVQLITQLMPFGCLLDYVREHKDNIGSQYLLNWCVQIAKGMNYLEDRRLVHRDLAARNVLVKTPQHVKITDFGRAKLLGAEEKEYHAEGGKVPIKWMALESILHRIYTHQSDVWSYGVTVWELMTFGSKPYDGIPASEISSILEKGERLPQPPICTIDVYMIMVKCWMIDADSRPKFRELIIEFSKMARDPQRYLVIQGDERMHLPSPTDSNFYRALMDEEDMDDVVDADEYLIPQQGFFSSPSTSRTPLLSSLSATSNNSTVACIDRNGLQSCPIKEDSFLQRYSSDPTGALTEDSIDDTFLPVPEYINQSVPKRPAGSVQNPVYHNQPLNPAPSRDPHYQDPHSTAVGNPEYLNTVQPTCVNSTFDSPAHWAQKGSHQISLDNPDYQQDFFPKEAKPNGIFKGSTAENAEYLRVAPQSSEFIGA

For orientation: pIC50 means the negative decadic logarithm of the IC50, by convention in mol/L. On to `C=CC(=O)Nc1cc2c(Oc3ccc(NC(=O)NCCc4csc(Br)c4)cc3F)ncnc2cc1OC`, for which the pIC50 was 5.39 in experiment [1]; 5.22 in experiment [2]; 5.44 in experiment [3]; 5.68 in experiment [4]; 5.82 in experiment [5]; 6.60 in experiment [6].
Regarding `CCCC(=O)Nc1cc2c(Oc3ccc(NC(=O)CCCc4ccc(OC)cc4)cc3F)ncnc2cc1OC`, the pIC50 is 5.11 in experiment [1]; 4.79 in experiment [2]; below 4.30 in experiment [3]; 5.12 in experiment [4]; 5.05 in experiment [5]; 6.22 in experiment [6].
On to `CCCC(=O)Nc1cc2c(Oc3ccc(NC(=O)CCCc4ccc(F)cc4)cc3F)ncnc2cc1OC`, for which the negative-log IC50 (pIC50) in experiment [1] was below 4.30; in experiment [2], 4.92; in experiment [3] it was below 4.30; in experiment [4], below 5.00; in experiment [5], below 5.00; in experiment [6], 6.32.
As to `C/C=C/C(=O)Nc1cc2c(Oc3ccc(NC(=O)CCCc4ccsc4)cc3F)ncnc2cc1OC`, the pIC50 is 4.66 in experiment [1]; below 4.30 in experiment [2]; 5.79 in experiment [3]; below 5.00 in experiment [4]; below 5.00 in experiment [5]; 5.86 in experiment [6].
Consider `COc1cc2ncnc(Oc3ccc(NC(=O)CCCc4ccsc4)cc3F)c2cc1NC(=O)CCC(C)C`, for which the pIC50 is 4.89 in experiment [1]; below 4.30 in experiment [2]; below 4.30 in experiment [3]; below 5.00 in experiment [4]; below 5.00 in experiment [5]; 5.26 in experiment [6].
For `C=CC(=O)Nc1cc2c(Oc3ccc(NC(=O)NCCc4ccc(OC)c(OC)c4)cc3F)ncnc2cc1OC`, the pIC50 is 5.17 in experiment [1]; 4.94 in experiment [2]; 5.61 in experiment [3]; 5.63 in experiment [4]; 5.38 in experiment [5]; 6.94 in experiment [6].
For the compound `CCCCC(=O)Nc1cc2c(Oc3ccc(NC(=O)CCCc4ccccc4)cc3F)ncnc2cc1OC`, the pIC50 in experiment [1] is 5.15; in experiment [2] it was 5.08; in experiment [3], 5.05; in experiment [4], below 5.00; in experiment [5] it was below 5.00; in experiment [6], 6.22.
Regarding `C=CC(=O)Nc1cc2c(Oc3ccc(NC(=O)c4c(-c5c(Cl)cccc5Cl)noc4C)cc3F)cccc2cc1OC`, the pIC50 in experiment [1] is 5.34; in experiment [2], 5.31; in experiment [3], 5.17; in experiment [6] it was 5.75.
Turning to `CCC(=O)Nc1cc2c(Oc3ccc(NC(=O)NCCc4csc(Br)c4)cc3F)ncnc2cc1OC`, the pIC50 is 5.07 in experiment [1]; 4.95 in experiment [2]; 5.30 in experiment [3]; below 5.00 in experiment [4]; below 5.00 in experiment [5]; 6.61 in experiment [6].
For `C=CC(=O)Nc1cc2c(Oc3ccc(NC(=O)CCCc4ccsc4)cc3F)ncnc2cc1OC`, the pIC50 in experiment [1] is 5.29; in experiment [2] it was 5.33; in experiment [3] it was 6.00; in experiment [4], below 5.00; in experiment [5] it was below 5.00; in experiment [6] it was 6.16.
Regarding `C=CC(=O)Nc1cc2c(Oc3ccc(NC(=O)CCCc4ccc(OC)cc4)cc3F)ncnc2cc1OC`, the pIC50 in experiment [1] was 5.51; in experiment [2], 5.68; in experiment [3] it was 4.71; in experiment [4], 6.25; in experiment [5], 6.16; in experiment [6] it was 6.46.
In the case of `COc1cc2ncnc(Oc3ccc(NC(=O)CCCc4ccc(F)cc4)cc3F)c2cc1NC(=O)CCC(C)C`, the negative logarithm of the IC50 (pIC50) in experiment [1] is below 4.30; in experiment [2], 4.92; in experiment [3], below 4.30; in experiment [4], below 5.00; in experiment [5], below 5.00; in experiment [6] it was 6.15.
Regarding `CCCC(=O)Nc1cc2c(Oc3ccc(NC(=O)c4sc(-c5ccccc5)nc4C)cc3F)cccc2cc1OC`, the negative-log IC50 (pIC50) in experiment [1] was 5.09; in experiment [2], 5.29; in experiment [3], below 4.30; in experiment [4], below 5.00; in experiment [5], below 5.00; in experiment [6], 7.14.
Take `CCC(=O)Nc1cc2c(Oc3ccc(NC(=O)NCCc4ccc(OC)c(OC)c4)cc3F)ncnc2cc1OC`: the pIC50 in experiment [1] is below 4.30; in experiment [2], below 4.30; in experiment [3], below 4.30; in experiment [4], below 5.00; in experiment [5] it was below 5.00; in experiment [6] it was 7.04.
In the case of `C/C=C/C(=O)Nc1cc2c(Oc3ccc(NC(=O)c4c(-c5c(Cl)cccc5Cl)noc4C)cc3F)cccc2cc1OC`, the pIC50 was 4.71 in experiment [1]; 4.76 in experiment [2]; 5.21 in experiment [3]; below 5.00 in experiment [4]; below 5.00 in experiment [5]; 5.47 in experiment [6].
For `CCC(=O)Nc1cc2c(Oc3ccc(NC(=O)c4c(-c5c(Cl)cccc5Cl)noc4C)cc3F)cccc2cc1OC`, the negative-log IC50 (pIC50) in experiment [1] is 5.10; in experiment [2], 5.31; in experiment [3] it was 5.28; in experiment [4], below 5.00; in experiment [5] it was below 5.00; in experiment [6], 5.46.
On to `CCC(=O)Nc1cc2c(Oc3ccc(NC(=O)n4c(=O)c(-c5ccccc5)c(C)n4C)cc3F)cccc2cc1OC`, for which the pIC50 in experiment [1] is 5.07; in experiment [2], 4.65; in experiment [3], 5.97; in experiment [4], below 5.00; in experiment [5], below 5.00; in experiment [6], 8.99.
As to `CCCC(=O)Nc1cc2c(Oc3ccc(NC(=O)c4c(-c5c(Cl)cccc5Cl)noc4C)cc3F)cccc2cc1OC`, the pIC50 in experiment [1] is below 4.30; in experiment [2] it was below 4.30; in experiment [3], below 4.30; in experiment [4], below 5.00; in experiment [5], below 5.00; in experiment [6], 5.23.
As for `CCCC(=O)Nc1cc2c(Oc3ccc(NC(=O)CCCc4ccc(C)cc4)cc3F)ncnc2cc1OC`, the pIC50 in experiment [1] is 4.85; in experiment [2], 4.85; in experiment [3], 4.54; in experiment [4] it was below 5.00; in experiment [5], below 5.00; in experiment [6], 6.17.
Consider `C/C=C/C(=O)Nc1cc2c(Oc3ccc(NC(=O)CCCc4ccc(C)cc4)cc3F)ncnc2cc1OC`, for which the pIC50 was 5.34 in experiment [1]; 5.02 in experiment [2]; 5.08 in experiment [3]; 5.12 in experiment [4]; below 5.00 in experiment [5]; 6.28 in experiment [6].
`CCCC(=O)Nc1cc2c(Oc3ccc(NC(=O)CCCc4ccccc4)cc3F)ncnc2cc1OC`: the pIC50 was 5.12 in experiment [1]; 5.30 in experiment [2]; 5.03 in experiment [3]; 5.58 in experiment [4]; 5.33 in experiment [5]; 6.50 in experiment [6].
With `C/C=C/C(=O)Nc1cc2c(Oc3ccc(NC(=O)c4sc(-c5ccccc5)nc4C)cc3F)cccc2cc1OC`, the pIC50 is 4.35 in experiment [1]; below 4.30 in experiment [2]; below 4.30 in experiment [3]; 5.63 in experiment [4]; below 5.00 in experiment [5]; 7.02 in experiment [6].
`C=CC(=O)Nc1cc2c(Oc3ccc(NC(=O)NCCC4CCCCC4)cc3F)ncnc2cc1OC`: the pIC50 in experiment [1] was 5.80; in experiment [2], 5.37; in experiment [3], 5.77; in experiment [4], 5.89; in experiment [5], 5.86; in experiment [6], 7.06.
Turning to `CCC(=O)Nc1cc2c(Oc3ccc(NC(=O)CCCc4ccc(C)cc4)cc3F)ncnc2cc1OC`, the pIC50 in experiment [1] is 5.48; in experiment [2], 4.72; in experiment [3], 5.11; in experiment [4], 5.07; in experiment [5] it was below 5.00; in experiment [6], 5.93.
For the compound `CCC(=O)Nc1cc2c(Oc3ccc(NC(=O)CCCc4ccsc4)cc3F)ncnc2cc1OC`, the pIC50 in experiment [1] was 4.91; in experiment [2] it was below 4.30; in experiment [3], 5.39; in experiment [4], below 5.00; in experiment [5], below 5.00; in experiment [6], 6.24.
On to `C/C=C/C(=O)Nc1cc2c(Oc3ccc(NC(=O)CCCc4ccccc4)cc3F)ncnc2cc1OC`, for which the pIC50 in experiment [1] is 5.27; in experiment [2], 5.33; in experiment [3], 5.24; in experiment [4] it was 5.54; in experiment [5], 5.45; in experiment [6] it was 6.33.
Regarding `CCC(=O)Nc1cc2c(Oc3ccc(NC(=O)CCCc4ccccc4)cc3F)ncnc2cc1OC`, the pIC50 is 5.15 in experiment [1]; 5.40 in experiment [2]; 5.59 in experiment [3]; 5.84 in experiment [4]; 5.64 in experiment [5]; 6.35 in experiment [6].
For `CCCCC(=O)Nc1cc2c(Oc3ccc(NC(=O)CCCc4ccc(F)cc4)cc3F)ncnc2cc1OC`, the pIC50 in experiment [1] was below 4.30; in experiment [2], 4.38; in experiment [3], below 4.30; in experiment [4], below 5.00; in experiment [5] it was below 5.00; in experiment [6], 6.27.
`C=CC(=O)Nc1cc2c(Oc3ccc(NC(=O)c4sc(-c5ccccc5)nc4C)cc3F)cccc2cc1OC`: the pIC50 in experiment [1] is 5.71; in experiment [2] it was 5.62; in experiment [3], 5.63; in experiment [4] it was 6.76; in experiment [5], 6.29; in experiment [6], 7.41.
`C/C=C/C(=O)Nc1cc2c(Oc3ccc(NC(=O)n4c(=O)c(-c5ccccc5)c(C)n4C)cc3F)cccc2cc1OC`: the pIC50 in experiment [1] was 5.57; in experiment [2], 5.03; in experiment [3], 5.05; in experiment [4] it was 5.32; in experiment [5] it was below 5.00; in experiment [6], 7.82.
